Literature values as cited in US20150098993A1, “COMPOSITIONS, PROCESS OF PREPARATION OF SAID COMPOSITIONS AND METHOD OF TREATING INFLAMMATORY DISEASES” (priority 2011, published 2015).

Columns and labels:
[1] = not given; remark: listed apart in the source
[2] = in vivo
mice = conditions: in mice
DBA/1 mice = DBA/1 mice immunized with bCII/CFA; Dalbeth
[3] = not given; remark: listed apart in the source
AT1 receptor = target: T1, AT1 receptor (Homo sapiens, UniProt P30556); conditions: AT1 vs AT2 receptor
T1 sequence (P30556 1-359): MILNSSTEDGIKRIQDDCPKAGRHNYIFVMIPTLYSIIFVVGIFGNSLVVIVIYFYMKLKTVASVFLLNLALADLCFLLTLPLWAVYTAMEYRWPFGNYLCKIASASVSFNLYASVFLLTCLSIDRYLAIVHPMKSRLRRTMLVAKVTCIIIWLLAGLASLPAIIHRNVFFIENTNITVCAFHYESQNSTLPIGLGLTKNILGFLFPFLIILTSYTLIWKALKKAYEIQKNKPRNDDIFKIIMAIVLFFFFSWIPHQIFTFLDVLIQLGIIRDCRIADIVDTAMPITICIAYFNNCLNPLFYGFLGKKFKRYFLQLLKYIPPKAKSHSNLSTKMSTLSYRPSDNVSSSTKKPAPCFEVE

male BALB/c mice = conditions: apremilast 5 and 25 mg/kg, dexamethasone 1 mg/kg; daily, oral; McCann

CCCc1nc(C(C)(C)O)c(C(=O)OCc2oc(=O)oc2C)n1Cc1ccc(-c2ccccc2-c2nnn[nH]2)cc1 [Olmesartan medoxomil]
absolute bioavailability (in vivo): about 26%

O=C(Nc1c(Cl)cncc1Cl)c1ccc(OC(F)F)c(OCC2CC2)c1 [CW304, 3-(cyclopropylmethoxy)-N-(3,5-dichloropyridin-4-yl)-4-(difluoromethoxy)benzamide]
solubility in acetone ([1]; acetone): freely soluble | solubility in ethanol ([1]; ethanol): sparingly soluble | side effects of therapy [2]: gastrointestinal (GI) events including nausea, diarrhea, and weight loss | Cmax (in vivo): 7040 ng/mL | T½ (in vivo): 12 to 14 h | absolute bioavailability (in vivo): 79% | maximum tolerated dose (mice): 2 mg/kg

Cc1ccc(NC(=O)c2ccc(CN3CCN(C)CC3)cc2)cc1Nc1nccc(-c2cccnc2)n1 [Imatinib, N-(4-methyl-3-{[4-(pyridin-3-yl)pyrmidin-2-yl]amino}phenyl)-4-[(4-methylpiperazin-1-yl)methyl]benzamide]
Tmax (in vivo): 1.2 h | maximum levels achieved after dosing (time) (in vivo): 2 to 4 h

CCOC(=O)[C@H](CCc1ccccc1)N[C@@H](C)C(=O)N1Cc2ccccc2C[C@H]1C(=O)O [Quinapril, (3S)-2-[(2S)-2-{[(2S)-1-ethoxy-1-oxo-4-phenylbutan-2-yl]amino}propanoyl]-1,2,3,4-tetrahydroisoquinoline-3-carboxylic acid]
severity of collagen-induced arthritis (DBA/1 mice): reduced the severity | solubility in aqueous solvents ([1]; aqueous solvents): freely soluble | time of peak plasma concentration (following oral administration): within one hour | T½ (in vivo): 13 h | extent of absorption (in vivo): at least 60% | half-life (in vivo): 2 h | half-life, prolonged terminal phase (terminal phase): 25 h | maximum tolerated dose (mice): 25 mg/kg | protein binding [3]: about 97%

CCCc1nc(C(C)(C)O)c(C(=O)OCc2oc(=O)oc2C)n1Cc1ccc(-c2ccccc2-c2nnn[nH]2)cc1 [(5-methyl-2-oxo-2H-1,3-dioxol-4-yl)methyl 4-(2-hydroxypropan-2-yl)-2-propyl-1-({4-[2-(2H-1,2,3,4-tetrazol-5-yl)phenyl]phenyl}methyl)-1H-imidazole-5-carboxylate]
solubility in methanol ([1]; methanol): sparingly soluble | solubility in water ([1]; water): practically insoluble | side effects of therapy [2]: dehydration (dry mouth, excessive thirst, muscle pain or cramps, nausea and vomiting, weakness), dizziness, low blood pressure, and slow or irregular heartbeat | T½ (in vivo): 13 h | half-life (in vivo): about 13 hours | penetration of red blood cells (in vivo): does not penetrate red blood cells | greater affinity for the AT1 receptor than for the AT2 receptor (AT1 receptor): > 12,500 fold | maximum tolerated dose (mice): 25 mg/kg | protein binding [3]: 99%

CCOc1cc([C@@H](CS(C)(=O)=O)N2C(=O)c3cccc(NC(C)=O)c3C2=O)ccc1OC [Apremilast, (S)-N-{2-[1-(3-Ethoxy-4-methoxyphenyl)-2-methanesulfonylethyl]-1,3-dioxo-2,3-dihydro-1H-isoindol-4-yl}acetamide]
arthritis severity, as measured by clinical score (male BALB/c mice): significantly suppressed arthritis severity
